Species on record: Rattus norvegicus
Test: Open TG-GATES - Regimen: Daily Repeat
Type: toxicity, organism-based, Sprague-Dawley
Parameters: regimen Daily Repeat, gender Male, age 6 weeks
Conditions: in vivo, po, route gavage; for gamma-GTP / A/G / ALP / ALT / AST / BUN / CRE / Ca / Cl / DBIL / GLC / IP / K / LDH / Na / PL / RALB / TBIL / TC / TG / TP: tissue Plasma; for APTT / Bas / Eos / Fbg / Hb / Ht / Lym / MCH / MCHC / MCV / Mono / Neu / PT / Plat / RBC / Ret / WBC: tissue Blood; for KIDNEY_L / KIDNEY_R / KIDNEY_TOTAL: tissue Kidney; for LIVER: tissue Liver
[1] = 3 mg/kg, […], dose level Low, time 28 day
[2] = 10 mg/kg, 72 h, dose level Middle, time 3 day
[3] = 10 mg/kg, […], dose level Middle, time 7 day
[4] = 10 mg/kg, […], dose level Middle, time 14 day
[5] = 10 mg/kg, […], dose level Middle, time 28 day

`CCN(CC)N=O` [N-NITROSODIETHYLAMINE] showed a gamma-GTP (3 mg/kg, […], dose level Low, time 14 day) of 1.2 IU/L, an A/G [1] of 1.3 and an ALP [1] of 685.6 IU/L. It also gave an ALT [1] of 37.6 IU/L, an AST [1] of 69.4 IU/L and a BUN [1] of 15.6 mg/dL. The CRE [1] was 0.5 mg/dL, the Ca [1] was 10.2 mg/dL and the Cl [1] was 103.2 meq/L. It also gave a DBIL [1] of 0.1 mg/dL, a GLC [1] of 203.8 mg/dL and an IP [1] of 7 mg/dL. For the same molecule, the K [1] was 3.7 meq/L, the LDH [1] was 198.4 IU/L and the Na [1] was 141.6 meq/L. For the same molecule, the PL [1] was 142.2 mg/dL, the RALB [1] was 3.4 g/dL and the TBIL [1] was 0.2 mg/dL. The TC [1] was 72 mg/dL, the TG [1] was 109.8 mg/dL and the TP [1] was 6 g/dL. The gamma-GTP [1] was 1.6 IU/L, the TERMINAL_BW [2] was 232.4 g and the APTT [2] was 17.9 s. It also gave a Bas [2] of 0.4%, an Eos [2] of 1% and a Fbg [2] of 224.4 mg/dL. It also gave a Hb [2] of 13.7 g/dL, a Ht [2] of 39.6% and a Lym [2] of 80.6%. It also gave an MCH [2] of 21.4 pg, an MCHC [2] of 34.5% and an MCV [2] of 62 fL. For the same molecule, the Mono [2] was 1.8%, the Neu [2] was 15.6% and the PT [2] was 11.9 s. For the same molecule, the Plat [2] was 144.5 x10_4/uL, the RBC [2] was 639 x10_4/ul and the Ret [2] was 5.5%. The WBC [2] was 81.6 x10_2/uL, the KIDNEY_L [2] was 1 g and the KIDNEY_R [2] was 1 g. For the same molecule, the KIDNEY_TOTAL [2] was 2 g, the LIVER [2] was 9.9 g and the A/G [2] was 1.5. It also gave an ALP [2] of 927.8 IU/L, an ALT [2] of 33.6 IU/L and an AST [2] of 69 IU/L. It also gave a BUN [2] of 14.4 mg/dL, a CRE [2] of 0.4 mg/dL and a Ca [2] of 10.6 mg/dL. For the same molecule, the Cl [2] was 103.4 meq/L, the DBIL [2] was 0.09 mg/dL and the GLC [2] was 186.6 mg/dL. It also gave an IP [2] of 7.5 mg/dL, a K [2] of 4.1 meq/L and an LDH [2] of 186.8 IU/L. It also gave a Na [2] of 140.8 meq/L, a PL [2] of 126.4 mg/dL and an RALB [2] of 3.3 g/dL. It also gave a TBIL [2] of 0.1 mg/dL, a TC [2] of 69 mg/dL and a TG [2] of 75 mg/dL. For the same molecule, the TP [2] was 5.5 g/dL, the gamma-GTP [2] was 1.4 IU/L and the TERMINAL_BW [3] was 255.8 g. The TERMINAL_BW [4] was 288.9 g, the TERMINAL_BW [5] was 349 g and the APTT [3] was 19.3 s. The Bas [3] was 0.8%, the Eos [3] was 1% and the Fbg [3] was 210.6 mg/dL. The Hb [3] was 14.7 g/dL, the Ht [3] was 41.7% and the Lym [3] was 80%. The MCH [3] was 21.2 pg, the MCHC [3] was 35.2% and the MCV [3] was 60.3 fL. For the same molecule, the Mono [3] was 2.4%, the Neu [3] was 15.8% and the PT [3] was 12.3 s. The Plat [3] was 139.2 x10_4/uL, the RBC [3] was 693.4 x10_4/ul and the Ret [3] was 3.4%. For the same molecule, the WBC [3] was 94.2 x10_2/uL, the APTT [4] was 18.7 s and the Bas [4] was 1%. For the same molecule, the Eos [4] was 1.2%, the Fbg [4] was 212 mg/dL and the Hb [4] was 16 g/dL. The Ht [4] was 44.8%, the Lym [4] was 75.2% and the MCH [4] was 21.4 pg. The MCHC [4] was 35.6%, the MCV [4] was 60.2 fL and the Mono [4] was 2.6%. The Neu [4] was 20%, the PT [4] was 12.8 s and the Plat [4] was 135.1 x10_4/uL. The RBC [4] was 745.2 x10_4/ul, the Ret [4] was 3% and the WBC [4] was 125 x10_2/uL. It also gave an APTT [5] of 17.1 s, a Bas [5] of 0.6% and an Eos [5] of 0.8%. For the same molecule, the Fbg [5] was 197.8 mg/dL, the Hb [5] was 16.8 g/dL and the Ht [5] was 45.5%. The Lym [5] was 77.4%, the MCH [5] was 20.6 pg and the MCHC [5] was 36.9%. For the same molecule, the MCV [5] was 55.9 fL, the Mono [5] was 2.4% and the Neu [5] was 18%. The PT [5] was 12.7 s, the Plat [5] was 115.5 x10_4/uL and the RBC [5] was 815 x10_4/ul. For the same molecule, the Ret [5] was 1.9%, the WBC [5] was 126.6 x10_2/uL and the KIDNEY_L [3] was 1 g. The KIDNEY_R [3] was 1 g, the KIDNEY_TOTAL [3] was 2.1 g and the KIDNEY_L [4] was 1.1 g. It also gave a KIDNEY_R [4] of 1.1 g, a KIDNEY_TOTAL [4] of 2.3 g and a KIDNEY_L [5] of 1.2 g. It also gave a KIDNEY_R [5] of 1.2 g, a KIDNEY_TOTAL [5] of 2.3 g and an LIVER [3] of 10.2 g. It also gave an LIVER [4] of 9.6 g, an LIVER [5] of 9.3 g and an A/G [3] of 1.7. For the same molecule, the ALP [3] was 860.8 IU/L, the ALT [3] was 36.2 IU/L and the AST [3] was 78 IU/L. For the same molecule, the BUN [3] was 13.6 mg/dL, the CRE [3] was 0.4 mg/dL and the Ca [3] was 10.4 mg/dL. It also gave a Cl [3] of 104.2 meq/L, a DBIL [3] of 0.1 mg/dL and a GLC [3] of 190.2 mg/dL. It also gave an IP [3] of 7.4 mg/dL, a K [3] of 4 meq/L and an LDH [3] of 236.4 IU/L. For the same molecule, the Na [3] was 141.2 meq/L, the PL [3] was 131 mg/dL and the RALB [3] was 3.3 g/dL. For the same molecule, the TBIL [3] was 0.2 mg/dL, the TC [3] was 71.4 mg/dL and the TG [3] was 59.2 mg/dL. For the same molecule, the TP [3] was 5.3 g/dL, the gamma-GTP [3] was 1.2 IU/L and the A/G [4] was 1.6. It also gave an ALP [4] of 1173 IU/L, an ALT [4] of 52.8 IU/L and an AST [4] of 91.4 IU/L. It also gave a BUN [4] of 15 mg/dL, a CRE [4] of 0.5 mg/dL and a Ca [4] of 10.5 mg/dL. It also gave a Cl [4] of 101.6 meq/L and a DBIL [4] of 0.1 mg/dL.

— ChEMBL document CHEMBL3885861, “Open TG-GATES”
